Legend:
TRPV4 = conditions: read-out: IC50 (antagonist); ref Cheung et al., 2017; cited from earlier work
[1] = biological target: human TRPV4 wild-type (hTRPV4-WT) (Homo sapiens, UniProt Q9HBA0); assay: Ca2+ imaging; assay type: cell-based; conditions: HeLa cells
hTRPV4-D546A = hTRPV4-D546A (Homo sapiens, UniProt Q9HBA0, D546A); assay: Ca2+ imaging; assay type: cell-based; conditions: for Blocking effect in mutant versus wild-type channel: D546A
hTRPV4-Y591H = hTRPV4-Y591H (Homo sapiens, UniProt Q9HBA0, Y591H); assay: Ca2+ imaging; assay type: cell-based
hTRPV4-Y591A = hTRPV4-Y591A (Homo sapiens, UniProt Q9HBA0, Y591A); assay: Ca2+ imaging; assay type: cell-based
hTRPV4-Y591A, sequence (Q9HBA0 whole entry Y591A): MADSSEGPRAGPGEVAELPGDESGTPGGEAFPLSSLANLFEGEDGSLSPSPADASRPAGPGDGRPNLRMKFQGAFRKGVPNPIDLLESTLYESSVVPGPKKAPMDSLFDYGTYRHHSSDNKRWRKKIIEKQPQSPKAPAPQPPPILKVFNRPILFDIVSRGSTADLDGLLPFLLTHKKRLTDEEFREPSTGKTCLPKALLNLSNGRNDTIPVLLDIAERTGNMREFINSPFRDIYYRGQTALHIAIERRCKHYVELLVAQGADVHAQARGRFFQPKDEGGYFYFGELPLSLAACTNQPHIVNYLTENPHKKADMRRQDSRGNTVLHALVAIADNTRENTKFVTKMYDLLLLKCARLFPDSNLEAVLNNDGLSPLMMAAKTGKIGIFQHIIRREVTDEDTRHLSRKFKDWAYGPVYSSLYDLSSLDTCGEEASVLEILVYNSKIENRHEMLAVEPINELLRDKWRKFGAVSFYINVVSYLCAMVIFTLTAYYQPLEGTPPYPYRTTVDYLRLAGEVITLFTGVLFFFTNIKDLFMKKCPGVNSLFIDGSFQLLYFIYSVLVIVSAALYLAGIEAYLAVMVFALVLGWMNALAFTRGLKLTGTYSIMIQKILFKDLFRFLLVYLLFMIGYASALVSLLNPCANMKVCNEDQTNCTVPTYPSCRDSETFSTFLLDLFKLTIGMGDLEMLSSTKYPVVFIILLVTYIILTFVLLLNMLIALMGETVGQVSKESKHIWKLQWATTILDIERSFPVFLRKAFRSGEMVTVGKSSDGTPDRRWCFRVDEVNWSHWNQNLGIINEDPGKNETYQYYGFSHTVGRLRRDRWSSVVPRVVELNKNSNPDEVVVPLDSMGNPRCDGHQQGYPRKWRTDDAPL

hTRPV4-D546A, sequence (Q9HBA0 whole entry D546A): as the sequence (Q9HBA0 whole entry Y591A) above, with D546A, A591Y counted along it
hTRPV4-Y591H, sequence (Q9HBA0 whole entry Y591H): as the sequence (Q9HBA0 whole entry Y591A) above, with A591H counted along it
human TRPV4 wild-type (hTRPV4-WT), sequence (Q9HBA0 whole entry): as the sequence (Q9HBA0 whole entry Y591A) above, with A591Y counted along it

CC(C)(O)c1cnc(N2C[C@@]3(CCC[C@](C)(Cn4cnc5ccc(C#N)cc54)C3)OC2=O)cn1 [GSK2798745]
IC50 (TRPV4): 16 nM

CC(C)C[C@H](NC(=O)c1cc2ccccc2s1)C(=O)N1CCN(C(=O)[C@H](CO)NS(=O)(=O)c2ccc(Cl)cc2Cl)CC1 [GSK1016790A, N‐((1S)‐1‐{[4‐((2S)‐2‐{[(2,4‐Dichlorophenyl)sulfonyl]amino}‐3‐hydroxypropanoyl)‐1‐piperazinyl]carbonyl}‐3‐methylbutyl)‐1‐benzothiophene‐2‐carboxamide]
Channel activation by agonist [1]: activated
Channel activation by agonist (hTRPV4-D546A; TRPV4-D546A, HeLa cells, Ca2+ imaging): activated
Channel response to agonist (hTRPV4-Y591H; hTRPV4-Y591H, 1-nM GSK1016790A): Neither hTRPV4‐Y591A nor hTRPV4‐Y591H responded
Channel response to agonist (hTRPV4-Y591A; hTRPV4-Y591A, 1-nM GSK1016790A): Neither hTRPV4‐Y591A nor hTRPV4‐Y591H responded

N.N.N.N.N.N.N.N.N.N.N.N.N.N.[Cl-].[Cl-].[Cl-].[Cl-].[Cl-].[Cl-].[O-2].[O-2].[Ru+3].[Ru+3].[Ru+4] [ruthenium red]
Blocking effect in mutant versus wild-type channel (hTRPV4-D546A; 1-nM GSK1016790A, ruthenium red 10 nM to 10 μM): not affected
Blocking effect in mutant versus wild-type channel (hTRPV4-D546A; 30% hypotonic solution, 1-μM ruthenium red): not affected
Blocking effect in mutant versus wild-type channel (hTRPV4-Y591H; Y591H, 30% hypotonic solution, 1-μM ruthenium red): not affected
Blocking effect in mutant versus wild-type channel (hTRPV4-Y591A; Y591A, 30% hypotonic solution, 1-μM ruthenium red): not affected

— publication PMC9291951 (British Journal of Pharmacology, 2020)
